From article PMC4914680 (Antimicrobial Agents and Chemotherapy, 2016)
Entries after “also recorded” stand apart in the source; their conditions may differ. Like-named read-outs stand apart in the source and are kept apart here.

Tests used:
[1] = tested on: HIV-1 NL4-3 ΔV370 variant (NLRepRlucP373S/Δ370); format: cell-based
[2] = tested on: NRTI (184V) resistant virus (LAI M184V); format: cell-based, HIV-1
[3] = tested on: NRTI (41L, 67N, 215F, 219E, 69N), AZT-resistant virus 7324-1; format: cell-based, HIV-1
[4] = tested on: NNRTI (103N, 181C) resistant virus; format: cell-based, HIV-1
[5] = tested on: PI (54V, 82A, 84V 84V) resistant virus; format: cell-based, HIV-1
[6] = tested on: INI (140S, 148H) resistant virus (NLRepRluc-G140S/Q148H); format: cell-based, HIV-1
[7] = tested on: V370M virus (recombinant virus with gag/pr genes from a clinical isolate); experiment: microbe, parasite or virus in culture; format: cell-based, HIV-1; conditions: Human immunodeficiency virus 1, MT2, read-out: EC50 (SD)
[8] = tested on: subtype B gag/pr recombinant viruses; experiment: Multiple-cycle Gag/Pr phenotyping assay; format: cell-based, HIV-1
HIV-1 gp160 = target: T1, HIV-1 gp160 (Human immunodeficiency virus type 1 group M subtype B, UniProt P04578); experiment: HIV-1 cell fusion assay; format: cell-based
T1 construct: expressed in transfected cells; host or cells: NL-TOE donor cells (target cells: HeLa C14)

HIV-1 NL4-3 = experiment: Time-of-addition study, NL4-3-infected B6 cells; format: cell-based; conditions: single cycle; for effect on luciferase signal by time of addition: 24 h postinfection; for time postinfection at which effectiveness begins to be lost: >100-fold EC50
[9] = tested on: HIV-LAI envelope-pseudotyped RepRlucP373SΔenv virus; experiment: Two-stage single-cycle pseudotype assay (HIV-1 entry assay); format: cell-based
[10] = target: WT HIV-1 VLPs, p25 to p24 (CA/SP1) cleavage (Human immunodeficiency virus type 1 group M subtype B, UniProt P03348); experiment: HIV-1 VLP protease cleavage assay; format: biochemical; conditions: Western blot
HIV-1 Gag (WT LAI VLPs) = HIV-1 Gag (WT LAI VLPs) (Human immunodeficiency virus type 1 group M subtype B, UniProt P03348); experiment: [3H]BMS-955176-Gag binding (SPA); conditions: raltegravir at 10 μM; data not shown
[11] = tested on: PI (46I, 82F, 84V, 90 M) resistant virus; format: cell-based, HIV-1
[12] = Human immunodeficiency virus 1, NL43, MT2
[13] = Human immunodeficiency virus 1, NL43, MT2, read-out: EC50 (SD)
[14] = Human immunodeficiency virus 1, read-out: EC50 (mean), sublibrary, None (WT), n=21
[15] = Human immunodeficiency virus 1, read-out: EC50 (mean), sublibrary, T371A/Q/N/S/TT, n=4
[16] = Human immunodeficiency virus 1, read-out: EC50 (mean), sublibrary, V362I, n=3
[17] = Human immunodeficiency virus 1, read-out: EC50 (mean), sublibrary, V370A + ΔT371, n=3
[18] = Human immunodeficiency virus 1, read-out: EC50 (mean), sublibrary, V370A, n=3
[19] = Human immunodeficiency virus 1, read-out: EC50 (mean), sublibrary, V370I/L/T, n=3
[20] = Human immunodeficiency virus 1, read-out: EC50 (mean), sublibrary, V370 M, n=5

With `COC(=O)N[C@H](C(=O)N[C@@H](Cc1ccccc1)[C@@H](O)CN(Cc1ccc(-c2ccccn2)cc1)NC(=O)[C@@H](NC(=O)OC)C(C)(C)C)C(C)(C)C` [Atazanavir] the EC50 [1, 12] was 3.8 nM, the “Fold change in EC50 (SD) relative to parental strain” value [2] was 1.1 (0.1) and the “Fold change in EC50 (SD) relative to parental strain” value [3] was 2.27 (0.02). The “Fold change in EC50 (SD) relative to parental strain” value [4] was 0.93 (0.03), the “Fold change in EC50 (SD) relative to parental strain” value [5] was 39 and the “Fold change in EC50 (SD) relative to parental strain” value [6] was 1.0 (0.21). The EC50 [7] was 2.3 nM.
In the case of `C=C(C)[C@@H]1CC[C@]2(C(=O)O)CC[C@]3(C)[C@H](CC[C@@H]4[C@@]5(C)CC=C(c6ccc(C(=O)O)cc6)C(C)(C)[C@@H]5CC[C@]43C)[C@@H]12` [BMS-1], the EC50 [1, 13] is reported as > 6000 nM.
`C=C(C)[C@@H]1CC[C@]2(C(=O)NCCc3ccccn3)CC[C@]3(C)[C@H](CC[C@@H]4[C@@]5(C)CC=C(c6ccc(C(=O)O)cc6)C(C)(C)[C@@H]5CC[C@]43C)[C@@H]12` [BMS-2] was tested, and the EC50 [1, 13] was 415 nM, the EC50 [8, 14] was 14 nM and the EC50 [8, 15] was 49 nM. For the same compound, the EC50 [8, 16] was 29 nM, the EC50 [8, 17] was 629 nM and the EC50 [8, 18] was 38 nM. The EC50 [8, 19] was 26 nM and the EC50 [8, 20] was 76 nM.
Work on `C=C(C)[C@@H]1CC[C@]2(C(=O)NCCN(C)C)CC[C@]3(C)[C@H](CC[C@@H]4[C@@]5(C)CC=C(c6ccc(C(=O)O)cc6)C(C)(C)[C@@H]5CC[C@]43C)[C@@H]12` [BMS-3] yielded an EC50 [1, 13] of 31 nM.
`COc1ccnc2[nH]cc(C(=O)C(=O)N3CCN(C(=O)c4ccccc4)C[C@H]3C)c12` [BMS-378806] was tested, and the EC50 (HIV-1 gp160; cell-cell fusion, luciferase, read-out: EC50) was 0.9 nM, the “effect on luciferase signal by time of addition” value (from here on “effect on luciferase signal”) (HIV-1 NL4-3) was “fully inhibitory (0% of control) only when added at the time of infection” and the “time postinfection at which effectiveness begins to be lost” value (“time postinfection” below) (HIV-1 NL4-3) was ≤ 4 h. For the same compound, the “inhibition of luciferase, compound added at stage 1 (virus production)” value (“inhibition of luciferase … (virus production)” below) [9] was “inhibitory when added at either stage 1 or 2” and the “inhibition of luciferase, compound added at stage 2 (infection)” value (shortened to “inhibition of luciferase … (infection)”) [9] was “inhibitory when added at either stage 1 or 2”.
`C=C(C)[C@@H]1CC[C@]2(C(=O)O)CC[C@]3(C)[C@H](CC[C@@H]4[C@@]5(C)CC[C@H](OC(=O)CC(C)(C)C(=O)O)C(C)(C)[C@@H]5CC[C@]43C)[C@@H]12` [BVM, 3-O-(3′,3′-dimethylsuccinyl)betulinic acid, reference compound] was tested, and the EC50 [1, 12] was ≥ 10000 nM, the EC50 [1, 13] was > 10000 nM and the EC50 [8, 14] was 14 nM. The EC50 [8, 15] was 113 nM, the EC50 [8, 16] was 36 nM and the EC50 [8, 17] was > 4000 nM. For the same compound, the EC50 [8, 18] was 227 nM, the EC50 [8, 19] was 251 nM and the EC50 [8, 20] was 903 nM. For the same compound, the “inhibition of conversion of VLP p25 to p24” value [10] was “inhibited the conversion of HIV-1 WT VLP p25 to p24 in a dose-dependent manner”, the “effect on luciferase signal” value (HIV-1 NL4-3) was “had no effect when added at any time point” and the “inhibition of luciferase … (virus production)” value [9] was “inhibiting luciferase production only when added in the first stage; also recorded: does not attain complete inhibition relative to NFV”. For the same compound, the “inhibition of luciferase … (infection)” value [9] was “inhibiting luciferase production only when added in the first stage” and the “competition for the binding of [3H]BMS-955176” value (HIV-1 Gag (WT LAI VLPs)) was “A similar result was obtained by displacement”.
With `CC(C)CN(C[C@@H](O)[C@H](Cc1ccccc1)NC(=O)O[C@H]1CO[C@H]2OCC[C@H]21)S(=O)(=O)c1ccc(N)cc1` [Darunavir] the EC50 [1, 12] was 4.5 nM, the “Fold change in EC50 (SD) relative to parental strain” value [2] was 1.2 (0.4) and the “Fold change in EC50 (SD) relative to parental strain” value [4] was 0.90 (0.1). For the same compound, the “Fold change in EC50 (SD) relative to parental strain” value [11] was 41 (1.9), the “Fold change in EC50 (SD) relative to parental strain” value [5] was 2.3 and the “Fold change in EC50 (SD) relative to parental strain” value [6] was 1.1 (0.1). The EC50 [7] was 2.3 nM.
In the case of `O=C1Nc2ccc(Cl)cc2[C@@](C#CC2CC2)(C(F)(F)F)O1` [Efavirenz], the “Fold change in EC50 (SD) relative to parental strain” value [2] is reported as 1.0 (0.1), the “Fold change in EC50 (SD) relative to parental strain” value [4] is reported as 55 (2.2) and the “Fold change in EC50 (SD) relative to parental strain” value [11] is reported as 0.20 (0.01). The “Fold change in EC50 (SD) relative to parental strain” value [5] was 1.4, the “Fold change in EC50 (SD) relative to parental strain” value [6] was 0.60 (0.3) and the “time postinfection” value (HIV-1 NL4-3) was 6 h.
In the case of `Nc1ccn([C@@H]2CS[C@H](CO)O2)c(=O)n1` [Lamivudine], the EC50 [1, 12] is reported as 470 nM.
For `Cc1c(O)cccc1C(=O)N[C@@H](CSc1ccccc1)[C@H](O)CN1C[C@H]2CCCC[C@H]2C[C@H]1C(=O)NC(C)(C)C` [NFV], the EC50 [1, 12] was 5 nM, the EC50 (HIV-1 gp160) was > 2000 nM and the “effect on luciferase signal” value (HIV-1 NL4-3) was “had no effect when added at any time point”. The “inhibition of luciferase … (virus production)” value [9] was “luciferase activity was inhibited” and the “inhibition of luciferase … (infection)” value [9] was “luciferase production was not inhibited”.
For `Cc1ccnc2c1NC(=O)c1cccnc1N2C1CC1` [Nevirapine], the EC50 [1, 12] was 170 nM, the “Fold change in EC50 (SD) relative to parental strain” value [2] was 1.3 (0.2) and the “Fold change in EC50 (SD) relative to parental strain” value [3] was 1.6 (0.2). For the same compound, the “Fold change in EC50 (SD) relative to parental strain” value [4] was >131 (108), the “Fold change in EC50 (SD) relative to parental strain” value [11] was 0.83 (0.08) and the “Fold change in EC50 (SD) relative to parental strain” value [6] was 0.89 (0.59). It also gave an EC50 [7] of 930 nM.
With `Cc1nnc(C(=O)NC(C)(C)c2nc(C(=O)NCc3ccc(F)cc3)c(O)c(=O)n2C)o1` [Raltegravir] the EC50 [1, 12] was 3.4 nM, the “Fold change in EC50 (SD) relative to parental strain” value [2] was 1.9 (0.6) and the “Fold change in EC50 (SD) relative to parental strain” value [4] was 1.8 (0.4). For the same compound, the “Fold change in EC50 (SD) relative to parental strain” value [11] was 0.18 (0.07), the “Fold change in EC50 (SD) relative to parental strain” value [6] was >340 (72) and the EC50 [7] was 3.3 nM. The “time postinfection” value (HIV-1 NL4-3) was 8 h and the “competition for the binding of [3H]BMS-955176” value (HIV-1 Gag (WT LAI VLPs)) was “did not compete”.
`Cc1cc(/C=C/C#N)cc(C)c1Nc1ccnc(Nc2ccc(C#N)cc2)n1` [Rilpivirine] was tested, and the “Fold change in EC50 (SD) relative to parental strain” value [2] was 2.0 (0.3), the “Fold change in EC50 (SD) relative to parental strain” value [4] was 8.1 (1.5) and the “Fold change in EC50 (SD) relative to parental strain” value [11] was 2.6 (0.8). For the same compound, the “Fold change in EC50 (SD) relative to parental strain” value [6] was 1.0 (0.5).
`C[C@H](Cn1cnc2c(N)ncnc21)OCP(=O)(O)O` [Tenofovir] was tested, and the EC50 [1, 12] was 7.2 nM and the EC50 [7] was 5 nM.
`Cc1cn([C@H]2C[C@H](N=[N+]=[N-])[C@@H](CO)O2)c(=O)[nH]c1=O` [Zidovudine] was tested, and the “Fold change in EC50 (SD) relative to parental strain” value [2] was 0.78 (0.03), the “Fold change in EC50 (SD) relative to parental strain” value [3] was 79 (5) and the “Fold change in EC50 (SD) relative to parental strain” value [4] was 1.03 (0.17). The “Fold change in EC50 (SD) relative to parental strain” value [6] was 0.82 (0.41).
